Consider seven molecules from ChEMBL document CHEMBL1201862, “PubChem BioAssay data set” (2004).

Assay [1] has as its target T1, Heat shock factor protein 1 (Mus musculus, UniProt P38532).
T1 sequence (P38532 whole entry): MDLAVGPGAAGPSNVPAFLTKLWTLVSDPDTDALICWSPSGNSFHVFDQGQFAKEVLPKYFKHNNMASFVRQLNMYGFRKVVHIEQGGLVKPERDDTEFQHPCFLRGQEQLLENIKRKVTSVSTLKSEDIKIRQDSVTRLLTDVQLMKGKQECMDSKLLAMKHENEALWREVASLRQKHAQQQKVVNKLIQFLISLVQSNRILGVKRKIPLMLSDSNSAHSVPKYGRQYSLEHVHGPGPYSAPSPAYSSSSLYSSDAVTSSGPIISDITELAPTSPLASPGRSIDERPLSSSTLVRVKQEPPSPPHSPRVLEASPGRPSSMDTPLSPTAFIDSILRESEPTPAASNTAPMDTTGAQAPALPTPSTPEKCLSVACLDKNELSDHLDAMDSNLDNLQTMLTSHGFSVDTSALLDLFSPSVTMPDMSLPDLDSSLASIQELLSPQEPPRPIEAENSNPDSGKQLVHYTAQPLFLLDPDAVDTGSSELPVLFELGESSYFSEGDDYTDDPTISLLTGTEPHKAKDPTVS
The experiment in a line: inhibition of MG132-induced HSE-luciferase signal, confirmation, cell-based, NIH3T3, luminescence, dose retest (AID 2382).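 Further: NIH3T3 fibroblasts with HSF1-driven luciferase reporter stressed by proteasome inhibitor MG132; luminescence from HSF1-driven luciferase expression after 8 hours of MG132 stress.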 The class given is functional.

In another assay the test system is Streptococcus. The experiment in a line: Group A Streptococcus viability loss, dose response, counter-screen for streptokinase expression inhibitor project, luminescence, BacTiterGlo (AID 1915).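 Further: potency for reduction of bacterial viability or growth.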 In kind it is functional, organism-based. In general terms: A counterscreen serves to expose hits that act by an unwanted route or on another target.
For another assay, the target named is T2, Streptokinase A (Streptococcus pyogenes serotype M1, UniProt P10520).
T2 sequence (P10520 whole entry): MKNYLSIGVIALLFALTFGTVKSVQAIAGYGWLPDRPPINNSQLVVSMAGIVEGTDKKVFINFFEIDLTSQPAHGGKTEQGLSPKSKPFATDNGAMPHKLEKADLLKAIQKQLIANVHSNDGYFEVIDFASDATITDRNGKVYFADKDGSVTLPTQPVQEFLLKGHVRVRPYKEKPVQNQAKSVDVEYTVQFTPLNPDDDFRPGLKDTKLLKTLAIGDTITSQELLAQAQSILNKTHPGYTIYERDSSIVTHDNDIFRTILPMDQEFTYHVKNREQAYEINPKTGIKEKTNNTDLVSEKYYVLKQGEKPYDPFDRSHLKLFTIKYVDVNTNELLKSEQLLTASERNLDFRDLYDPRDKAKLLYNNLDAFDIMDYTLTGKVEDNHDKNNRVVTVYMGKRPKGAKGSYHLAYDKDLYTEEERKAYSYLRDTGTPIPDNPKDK
As to the kind of experiment: S. pyogenes streptokinase expression inhibitors, potency, dose response, plasminogen activation absorbance, OD405 (AID 1914).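 Further: secreted streptokinase activity via plasminogen activation per viability signal from cell pellet.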 In kind it is functional, Streptococcus pyogenes M1 GAS.

The subject of another assay is Escherichia coli. The experiment in a line: microbe, parasite or virus in culture.
The test system of assay [2] is Streptococcus sp. 'group A'. The experiment in a line: growth inhibition of control SK(-) GAS strain, dose response, counter-screen for streptokinase expression inhibitor project, luminescence, kanamycin, BacTiterGlo, confirmation (AID 1900). In kind it is functional, organism-based.
The target in assay [3] is Lysine-specific demethylase 4A (Homo sapiens, UniProt O75164). The experiment in a line: JMJD2A histone demethylase inhibitors, dose response, selectivity assay for GASC-1 inhibitor project, biochemical, DELFIA europium, cherry-picked samples (AID 488840).
The target in assay [4] is Voltage-gated inwardly rectifying potassium channel KCNH2 (Homo sapiens, UniProt Q12809). The following applies: Potency.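 Further: confirmatory quantitative high-throughput screen measuring inhibition of hERG channel activity.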
Sequence of Voltage-gated inwardly rectifying potassium channel KCNH2 (Q12809 whole entry): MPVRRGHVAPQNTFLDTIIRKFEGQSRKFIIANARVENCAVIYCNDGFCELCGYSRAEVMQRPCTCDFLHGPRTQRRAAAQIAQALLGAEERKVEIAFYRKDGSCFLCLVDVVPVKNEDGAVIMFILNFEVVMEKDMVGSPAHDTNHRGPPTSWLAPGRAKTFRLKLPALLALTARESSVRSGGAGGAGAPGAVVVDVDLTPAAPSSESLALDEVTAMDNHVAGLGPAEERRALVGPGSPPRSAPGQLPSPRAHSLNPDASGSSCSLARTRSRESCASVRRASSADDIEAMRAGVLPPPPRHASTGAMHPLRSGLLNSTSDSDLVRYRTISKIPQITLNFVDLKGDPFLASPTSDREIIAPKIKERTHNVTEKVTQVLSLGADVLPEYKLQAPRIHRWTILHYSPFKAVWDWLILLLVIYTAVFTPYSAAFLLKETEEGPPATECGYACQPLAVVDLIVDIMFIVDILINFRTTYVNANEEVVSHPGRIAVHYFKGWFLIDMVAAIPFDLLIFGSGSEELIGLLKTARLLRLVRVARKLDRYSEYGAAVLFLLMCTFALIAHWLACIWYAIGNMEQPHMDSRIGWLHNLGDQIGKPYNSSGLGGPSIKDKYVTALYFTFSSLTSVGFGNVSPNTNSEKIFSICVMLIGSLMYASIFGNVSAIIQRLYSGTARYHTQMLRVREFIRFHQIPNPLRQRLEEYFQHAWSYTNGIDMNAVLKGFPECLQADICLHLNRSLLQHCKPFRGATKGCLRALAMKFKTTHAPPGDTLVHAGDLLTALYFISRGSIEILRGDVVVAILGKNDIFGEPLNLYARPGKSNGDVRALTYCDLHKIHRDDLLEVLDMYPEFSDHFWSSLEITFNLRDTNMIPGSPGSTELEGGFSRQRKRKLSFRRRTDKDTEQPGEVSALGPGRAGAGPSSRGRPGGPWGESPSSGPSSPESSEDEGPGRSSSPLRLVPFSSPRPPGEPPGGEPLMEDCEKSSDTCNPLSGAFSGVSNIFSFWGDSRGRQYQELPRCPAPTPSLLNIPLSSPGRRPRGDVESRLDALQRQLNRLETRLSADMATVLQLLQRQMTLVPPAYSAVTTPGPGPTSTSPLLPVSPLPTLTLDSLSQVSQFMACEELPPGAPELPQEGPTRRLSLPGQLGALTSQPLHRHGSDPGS
The next assay deals with Phosphomannomutase 2 (Homo sapiens, UniProt O15305). As to the kind of experiment: Counter screen SAR assay for PMM2 inhibitors via a fluorescence intensity assay. [Related pubchem assays (depositor defined):AID1545, AID1574].
Sequence of Phosphomannomutase 2 (O15305 whole entry): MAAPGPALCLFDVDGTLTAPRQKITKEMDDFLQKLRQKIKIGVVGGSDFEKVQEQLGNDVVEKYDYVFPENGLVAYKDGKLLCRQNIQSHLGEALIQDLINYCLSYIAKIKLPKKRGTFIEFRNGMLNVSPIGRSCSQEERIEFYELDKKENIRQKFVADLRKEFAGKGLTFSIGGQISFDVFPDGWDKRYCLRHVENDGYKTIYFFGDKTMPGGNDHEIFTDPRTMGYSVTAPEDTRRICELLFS
Assay [5] concerns the target T3, Mannose-6-phosphate isomerase (Homo sapiens, UniProt P34949).
T3 sequence (P34949 whole entry): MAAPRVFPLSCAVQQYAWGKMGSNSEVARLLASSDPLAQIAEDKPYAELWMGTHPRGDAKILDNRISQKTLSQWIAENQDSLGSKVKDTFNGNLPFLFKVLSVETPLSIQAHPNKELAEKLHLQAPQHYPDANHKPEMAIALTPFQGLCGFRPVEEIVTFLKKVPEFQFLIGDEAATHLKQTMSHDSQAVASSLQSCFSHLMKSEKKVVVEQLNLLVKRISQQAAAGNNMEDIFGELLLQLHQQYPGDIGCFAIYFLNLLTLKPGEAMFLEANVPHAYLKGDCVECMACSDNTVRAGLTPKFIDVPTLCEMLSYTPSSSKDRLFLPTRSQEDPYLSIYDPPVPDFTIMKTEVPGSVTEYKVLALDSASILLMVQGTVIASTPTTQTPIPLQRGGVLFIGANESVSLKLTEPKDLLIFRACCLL
The experiment in a line: PMI enzyme inhibitors, confirmation, biochemical, fluorescence intensity (AID 1535).

The target in the next assay is Cytochrome P450 3A4 (Homo sapiens, UniProt P08684). To be noted: Potency.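 Further: confirmatory qHTS run detecting inhibitors and substrates of CYP3A4.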
Sequence of Cytochrome P450 3A4 (P08684 whole entry): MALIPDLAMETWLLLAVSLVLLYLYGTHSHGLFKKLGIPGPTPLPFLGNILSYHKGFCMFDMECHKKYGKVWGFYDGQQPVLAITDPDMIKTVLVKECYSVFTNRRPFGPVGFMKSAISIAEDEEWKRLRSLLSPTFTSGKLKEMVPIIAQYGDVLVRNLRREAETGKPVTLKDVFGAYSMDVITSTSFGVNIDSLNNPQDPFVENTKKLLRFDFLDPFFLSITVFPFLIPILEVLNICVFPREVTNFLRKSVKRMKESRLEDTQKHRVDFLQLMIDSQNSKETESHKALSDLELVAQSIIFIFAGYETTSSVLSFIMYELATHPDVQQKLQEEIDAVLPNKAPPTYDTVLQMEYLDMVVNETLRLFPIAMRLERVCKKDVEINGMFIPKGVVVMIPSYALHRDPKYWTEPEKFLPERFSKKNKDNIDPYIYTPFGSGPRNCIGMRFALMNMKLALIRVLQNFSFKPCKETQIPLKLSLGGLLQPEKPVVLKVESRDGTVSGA
Assay [6] deals with T4, Tyrosine-protein phosphatase non-receptor type 22 (Homo sapiens, UniProt Q9Y2R2).
T4 sequence (Q9Y2R2 whole entry): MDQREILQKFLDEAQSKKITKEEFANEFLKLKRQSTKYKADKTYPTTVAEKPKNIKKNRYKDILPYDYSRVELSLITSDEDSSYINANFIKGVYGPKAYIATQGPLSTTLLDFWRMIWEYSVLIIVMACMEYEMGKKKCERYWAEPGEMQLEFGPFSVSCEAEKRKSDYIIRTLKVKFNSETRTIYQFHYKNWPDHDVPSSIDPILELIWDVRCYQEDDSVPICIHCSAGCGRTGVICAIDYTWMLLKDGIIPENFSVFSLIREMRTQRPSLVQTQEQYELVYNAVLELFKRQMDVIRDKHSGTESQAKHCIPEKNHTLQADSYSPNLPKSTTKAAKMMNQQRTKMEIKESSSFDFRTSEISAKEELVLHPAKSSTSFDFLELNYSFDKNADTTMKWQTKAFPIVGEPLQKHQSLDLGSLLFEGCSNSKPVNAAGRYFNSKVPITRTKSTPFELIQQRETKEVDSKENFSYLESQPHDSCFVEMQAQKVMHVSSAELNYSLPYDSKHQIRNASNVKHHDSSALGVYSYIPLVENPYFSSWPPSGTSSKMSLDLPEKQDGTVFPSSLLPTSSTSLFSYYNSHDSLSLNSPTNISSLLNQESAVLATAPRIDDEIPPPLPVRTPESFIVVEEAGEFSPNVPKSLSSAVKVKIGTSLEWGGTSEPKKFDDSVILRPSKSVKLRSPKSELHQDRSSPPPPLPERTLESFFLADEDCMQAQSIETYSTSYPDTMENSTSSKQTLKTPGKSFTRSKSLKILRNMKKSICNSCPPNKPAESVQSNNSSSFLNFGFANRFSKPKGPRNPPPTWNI
The class given is functional.

Assay [7] concerns the target T5, Tyrosine-protein phosphatase non-receptor type 7 (Homo sapiens, UniProt P35236).
T5 sequence (P35236 whole entry): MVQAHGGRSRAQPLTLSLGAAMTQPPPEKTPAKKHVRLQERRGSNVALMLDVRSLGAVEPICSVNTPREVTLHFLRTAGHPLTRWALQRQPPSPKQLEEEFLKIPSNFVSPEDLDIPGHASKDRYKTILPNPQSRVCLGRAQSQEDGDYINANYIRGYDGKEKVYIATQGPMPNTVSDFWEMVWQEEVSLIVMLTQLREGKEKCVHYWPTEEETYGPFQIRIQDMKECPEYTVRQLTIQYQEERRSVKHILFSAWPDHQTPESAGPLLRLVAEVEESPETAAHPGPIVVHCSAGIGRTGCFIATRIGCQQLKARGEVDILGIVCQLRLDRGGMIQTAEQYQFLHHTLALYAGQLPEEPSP
In kind it is functional.

Assay [8] addresses T4, Tyrosine-protein phosphatase non-receptor type 22. The class given is functional. The source holds these as a separate data set.
The target of assay [9] is Eukaryotic translation initiation factor 4E (Mus musculus, UniProt P63073). As to the kind of experiment: eIF4E–eIF4G protein interaction inhibitors, dose response, biochemical, TR-FRET (AID 855).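 Further: potency for disrupting eIF4E binding to eIF4GI seen as loss of FRET.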 The class given is functional.
The target of assay [10] is T6, Voltage-gated N-type calcium channel alpha-1B subunit/Amyloid beta A4 precursor protein-binding family A member 1 (Homo sapiens, UniProt Q00975+Q02410). The class given is protein assay.
T6 sequence (Q00975 whole entry): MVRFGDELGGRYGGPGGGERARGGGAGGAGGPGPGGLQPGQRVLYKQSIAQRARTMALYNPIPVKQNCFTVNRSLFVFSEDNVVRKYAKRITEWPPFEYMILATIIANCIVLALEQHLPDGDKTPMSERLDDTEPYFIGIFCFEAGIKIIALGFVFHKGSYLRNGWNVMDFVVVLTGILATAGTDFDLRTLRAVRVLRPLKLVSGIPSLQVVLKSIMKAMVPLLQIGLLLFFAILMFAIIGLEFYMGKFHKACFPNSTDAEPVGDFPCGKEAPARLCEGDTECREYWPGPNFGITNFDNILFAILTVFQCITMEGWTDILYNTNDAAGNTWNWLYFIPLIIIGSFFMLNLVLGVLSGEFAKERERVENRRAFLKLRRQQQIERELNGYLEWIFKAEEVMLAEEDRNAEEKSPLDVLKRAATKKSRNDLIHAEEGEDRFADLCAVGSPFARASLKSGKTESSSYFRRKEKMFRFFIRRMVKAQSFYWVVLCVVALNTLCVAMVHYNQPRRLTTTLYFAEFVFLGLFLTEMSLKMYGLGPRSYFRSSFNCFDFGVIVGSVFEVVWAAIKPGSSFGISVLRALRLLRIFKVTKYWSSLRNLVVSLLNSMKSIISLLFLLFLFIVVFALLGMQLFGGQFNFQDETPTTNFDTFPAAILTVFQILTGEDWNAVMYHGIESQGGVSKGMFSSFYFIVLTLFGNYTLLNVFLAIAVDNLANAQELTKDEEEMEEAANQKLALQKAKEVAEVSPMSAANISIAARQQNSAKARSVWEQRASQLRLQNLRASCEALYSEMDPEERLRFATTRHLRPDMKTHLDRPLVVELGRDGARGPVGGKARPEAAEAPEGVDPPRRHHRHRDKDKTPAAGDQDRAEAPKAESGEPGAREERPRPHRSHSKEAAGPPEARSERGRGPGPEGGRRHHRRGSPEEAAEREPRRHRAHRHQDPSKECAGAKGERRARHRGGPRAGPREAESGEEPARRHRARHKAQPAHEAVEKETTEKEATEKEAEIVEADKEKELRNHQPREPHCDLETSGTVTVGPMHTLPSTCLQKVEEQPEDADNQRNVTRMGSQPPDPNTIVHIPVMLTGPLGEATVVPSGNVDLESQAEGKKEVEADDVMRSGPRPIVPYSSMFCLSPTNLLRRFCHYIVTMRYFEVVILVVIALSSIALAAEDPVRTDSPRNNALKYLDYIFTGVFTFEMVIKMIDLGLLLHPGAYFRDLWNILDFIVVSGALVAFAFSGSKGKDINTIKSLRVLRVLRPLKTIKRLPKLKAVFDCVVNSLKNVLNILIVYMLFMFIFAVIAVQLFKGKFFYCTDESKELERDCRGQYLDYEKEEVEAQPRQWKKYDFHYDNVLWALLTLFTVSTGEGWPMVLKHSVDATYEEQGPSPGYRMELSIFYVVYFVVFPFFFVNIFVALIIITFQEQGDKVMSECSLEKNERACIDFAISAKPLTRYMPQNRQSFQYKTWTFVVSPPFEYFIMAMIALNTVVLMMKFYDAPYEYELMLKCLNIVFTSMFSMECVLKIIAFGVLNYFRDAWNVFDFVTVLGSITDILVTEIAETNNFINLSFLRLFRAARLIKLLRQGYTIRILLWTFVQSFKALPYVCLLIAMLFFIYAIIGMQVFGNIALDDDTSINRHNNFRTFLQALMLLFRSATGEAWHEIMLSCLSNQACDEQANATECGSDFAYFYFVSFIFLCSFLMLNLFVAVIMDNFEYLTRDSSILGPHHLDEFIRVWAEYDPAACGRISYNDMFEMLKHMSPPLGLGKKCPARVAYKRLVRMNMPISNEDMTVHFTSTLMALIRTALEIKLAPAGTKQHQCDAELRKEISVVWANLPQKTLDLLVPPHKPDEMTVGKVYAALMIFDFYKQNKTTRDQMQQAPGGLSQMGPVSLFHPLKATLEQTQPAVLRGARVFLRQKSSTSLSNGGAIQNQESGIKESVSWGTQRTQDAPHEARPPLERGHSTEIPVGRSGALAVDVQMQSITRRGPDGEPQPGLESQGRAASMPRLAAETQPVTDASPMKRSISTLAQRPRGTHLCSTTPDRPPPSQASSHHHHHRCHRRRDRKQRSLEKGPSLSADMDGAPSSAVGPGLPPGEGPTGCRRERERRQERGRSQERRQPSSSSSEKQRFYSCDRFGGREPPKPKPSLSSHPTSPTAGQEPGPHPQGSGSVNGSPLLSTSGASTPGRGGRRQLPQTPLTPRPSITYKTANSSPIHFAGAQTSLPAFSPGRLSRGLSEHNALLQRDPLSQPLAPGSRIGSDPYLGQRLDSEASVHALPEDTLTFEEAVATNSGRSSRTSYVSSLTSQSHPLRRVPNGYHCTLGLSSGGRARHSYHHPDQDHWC
T6 sequence (Q02410 whole entry): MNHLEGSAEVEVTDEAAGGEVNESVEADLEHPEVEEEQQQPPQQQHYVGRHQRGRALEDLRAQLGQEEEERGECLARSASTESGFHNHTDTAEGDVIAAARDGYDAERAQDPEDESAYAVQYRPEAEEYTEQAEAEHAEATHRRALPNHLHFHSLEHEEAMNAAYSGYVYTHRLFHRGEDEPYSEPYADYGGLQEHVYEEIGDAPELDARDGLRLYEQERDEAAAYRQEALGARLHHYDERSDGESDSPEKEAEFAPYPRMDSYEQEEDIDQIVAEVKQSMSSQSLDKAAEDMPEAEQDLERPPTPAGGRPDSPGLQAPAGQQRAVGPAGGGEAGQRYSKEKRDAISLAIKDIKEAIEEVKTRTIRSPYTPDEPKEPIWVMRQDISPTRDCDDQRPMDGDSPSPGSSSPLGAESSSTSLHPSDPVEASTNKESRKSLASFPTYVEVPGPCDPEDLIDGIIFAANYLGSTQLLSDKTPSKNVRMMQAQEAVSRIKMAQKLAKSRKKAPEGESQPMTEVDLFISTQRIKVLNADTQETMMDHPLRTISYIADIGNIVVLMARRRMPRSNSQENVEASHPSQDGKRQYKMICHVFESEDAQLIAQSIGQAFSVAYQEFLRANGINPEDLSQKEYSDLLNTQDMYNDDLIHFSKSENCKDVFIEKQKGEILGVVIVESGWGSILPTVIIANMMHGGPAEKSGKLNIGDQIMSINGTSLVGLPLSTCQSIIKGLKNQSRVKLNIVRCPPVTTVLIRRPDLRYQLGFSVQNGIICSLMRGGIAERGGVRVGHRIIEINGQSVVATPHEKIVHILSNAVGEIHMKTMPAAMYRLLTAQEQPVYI
Assay [11] has as its target T6, Voltage-gated N-type calcium channel alpha-1B subunit/Amyloid beta A4 precursor protein-binding family A member 1. In kind it is protein assay. This is another data set of the same source.

Structures are written as SMILES. The source made the active and inactive calls. Some results are limits rather than exact numbers.

The term EC50 denotes the concentration that produces a half-maximal response. A low value points to higher potency in that assay. A word on the AC50: it is the concentration giving half of the maximal activity seen. In the case of `N#Cc1nc(-c2ccccc2Cl)oc1N1CCN(C(=O)c2ccco2)CC1`, the EC50 is listed as > 195 µM (not active) in assay [1], > 150 µM (not active) in the assay on Streptococcus, > 150 µM (not active) at Streptokinase A and > 150 µM (not active) in [2]. Further, the AC50 in the assay on Escherichia coli is 23.9 µM (active).

As for `Cc1ccccc1Cn1c2ccccc2c2cnnc(O)c21`, the AC50 in assay [3] is 30.2 µM (active).

As for `O=[N+]([O-])c1cc([N+](=O)[O-])c2ccccc2c1`, the AC50 in assay [4] is 15.8 µM (inconclusive).

As usually defined, the IC50 is the concentration at which inhibition is half-maximal. For the molecule `O=[N+]([O-])c1ccc(/N=c2\ssnc2Cl)cc1`, the IC50 is > 100 µM (inactive) at Phosphomannomutase 2 and 23 µM (active) in [5].

On to `CC(C)(c1ccccc1)c1ccc(O)cc1`, for which the AC50 at Cytochrome P450 3A4 was 20 µM (inconclusive); in [4], 28.2 µM (inconclusive).

As for `C/C(=N\NC(=O)c1c(-c2ccccc2Cl)noc1C)c1cccc(NC(=O)C(C)C)c1`, the IC50 in assay [6], in assay [7] and in [8] was > 79.4 µM (inactive) throughout.

As to `Clc1nss/c1=N\c1ccccc1`, the IC50 is 50 µM (inactive) in assay [9]; > 100 µM (inactive) at Phosphomannomutase 2; 8.07 µM (active) in assay [10]; 8.44 µM (active) in assay [11]; 15.7 µM (active) in assay [5].
